Data as given in PubChem BioAssay (NCI).
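All cell lines were grown in 96-well plates and treated with compound for 48 hours. GI50 = concentration required for 50% inhibition of growth. At the TGI there is no net growth.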

How the values were obtained:
Assay in all cases: inhibition of tumour cell growth, NCI panel, 48 h
[1] = test system: HL-60(TB) leukemia
[2] = test system: CCRF-CEM leukemia
[3] = test system: HOP-62 NSCLC
[4] = test system: A498 renal
[5] = test system: HS 578T breast
[6] = test system: LOX IMVI melanoma
[7] = test system: OVCAR-8 ovarian
[8] = test system: NCI-H226 lung
[9] = test system: SK-MEL-5 melanoma
[10] = test system: BT-549 breast
[11] = test system: UACC-257 melanoma
[12] = test system: MDA-MB-435
[13] = test system: OVCAR-4 ovarian
[14] = test system: SF-295 CNS
[15] = test system: UO-31 renal
[16] = test system: SW-620 colon
[17] = test system: SK-MEL-2 melanoma
[18] = test system: MALME-3M melanoma
[19] = test system: SN12C renal
[20] = test system: ACHN renal
[21] = test system: HOP-92 NSCLC
[22] = test system: UACC-62 melanoma
[23] = test system: KM12 colon
[24] = test system: K-562 leukemia
[25] = test system: NCI-H23 lung
[26] = test system: HCC-2998 colon
[27] = test system: SNB-19 CNS
[28] = test system: HT29 colon
[29] = test system: RXF 393 renal
[30] = test system: SR leukemia
[31] = test system: NCI-H522 lung
[32] = test system: EKVX NSCLC
[33] = test system: MOLT-4 leukemia
[34] = test system: TK-10 renal
[35] = test system: IGROV1 ovarian
[36] = test system: NCI-H460 lung
[37] = test system: SF-268 CNS
[38] = test system: SNB-75 CNS
[39] = test system: SF-539 CNS
[40] = test system: OVCAR-3 ovarian
[41] = test system: SK-OV-3 ovarian
[42] = test system: RPMI-8226 leukemia
[43] = test system: HCT-15 colon
[44] = test system: T-47D breast
[45] = test system: NCI/ADR-RES ovarian
[46] = test system: M14 melanoma

Compound `COC(=O)C1CCc2sc3ncnc(Nc4cn[nH]c4C(=O)Nc4ccc(CN5CCN(C)CC5)cc4)c3c21` (configuration not stated) has a GI50 [1] of 1.68 µM, a TGI [1] of 3.87 µM and a GI50 [2] of 0.29 µM. For the same compound, the TGI [2] was 2.98 µM, the GI50 [3] was 0.453 µM and the TGI [3] was 19.5 µM. It also gave a GI50 [4] of 0.218 µM, a TGI [4] of 1.8 µM and a GI50 [5] of 0.54 µM. For the same compound, the TGI [5] was 12.7 µM, the GI50 [6] was 0.405 µM and the TGI [6] was 1.79 µM. For the same compound, the GI50 [7] was 0.711 µM, the TGI [7] was 75.1 µM and the GI50 [8] was 0.588 µM. For the same compound, the TGI [8] was over 100 µM, the GI50 [9] was 0.58 µM and the TGI [9] was 2.56 µM. The GI50 [10] was 0.899 µM, the TGI [10] was 6.02 µM and the GI50 [11] was 1.19 µM. The TGI [11] was 2.8 µM, the GI50 [12] was 1.06 µM and the TGI [12] was 3.38 µM. It also gave a GI50 [13] of 0.906 µM, a TGI [13] of over 100 µM and a GI50 [14] of 0.659 µM. It also gave a TGI [14] of 17.1 µM, a GI50 [15] of 0.455 µM and a TGI [15] of 9.51 µM. For the same compound, the GI50 [16] was 0.354 µM, the TGI [16] was 1.58 µM and the GI50 [17] was 0.692 µM. It also gave a TGI [17] of 3.48 µM, a GI50 [18] of 1.98 µM and a TGI [18] of 3.78 µM. For the same compound, the GI50 [19] was 0.345 µM, the TGI [19] was over 100 µM and the GI50 [20] was 0.232 µM. The TGI [20] was 10.1 µM, the GI50 [21] was 1.14 µM and the TGI [21] was 5.88 µM. The GI50 [22] was 1.36 µM, the TGI [22] was 6.59 µM and the GI50 [23] was 0.207 µM. The TGI [23] was 2.63 µM, the GI50 [24] was 0.254 µM and the TGI [24] was 4.15 µM. The GI50 [25] was 0.506 µM, the TGI [25] was 2.67 µM and the GI50 [26] was 1.82 µM. The TGI [26] was 31.5 µM, the GI50 [27] was 0.712 µM and the TGI [27] was over 100 µM. It also gave a GI50 [28] of 0.619 µM, a TGI [28] of 2.91 µM and a GI50 [29] of 0.244 µM. The TGI [29] was 0.891 µM, the GI50 [30] was 0.285 µM and the TGI [30] was 0.815 µM. For the same compound, the GI50 [31] was 0.304 µM, the TGI [31] was 1.63 µM and the GI50 [32] was 0.838 µM. It also gave a TGI [32] of 14 µM, a GI50 [33] of 0.324 µM and a TGI [33] of 0.991 µM. It also gave a GI50 [34] of 2.31 µM, a TGI [34] of 17.8 µM and a GI50 [35] of 0.447 µM. The TGI [35] was over 100 µM, the GI50 [36] was 0.331 µM and the TGI [36] was 1.49 µM. For the same compound, the GI50 [37] was 0.666 µM, the TGI [37] was 2.63 µM and the GI50 [38] was 0.0684 µM. The TGI [38] was 2.87 µM, the GI50 [39] was 0.371 µM and the TGI [39] was 1.49 µM. It also gave a GI50 [40] of 0.334 µM, a TGI [40] of 2.04 µM and a GI50 [41] of 0.132 µM. It also gave a TGI [41] of over 100 µM, a GI50 [42] of 1.41 µM and a TGI [42] of 4.21 µM. For the same compound, the GI50 [43] was 0.423 µM, the TGI [43] was over 100 µM and the GI50 [44] was 0.957 µM. It also gave a TGI [44] of 11.6 µM, a GI50 [45] of 3.27 µM and a TGI [45] of over 100 µM. For the same compound, the GI50 [46] was 0.708 µM and the TGI [46] was 2.14 µM.
